Consider nine compounds from patent publication US10316017B2, “COT modulators and methods of use thereof” (Gilead Sciences, Inc., priority 2015, dated 2019).

Like-named read-outs stand apart in the source and are kept apart here. Some results are limits rather than exact numbers.

Experiment [1] relates to TNFα production in LPS-stimulated human monocytes. In words: Cot Monocyte TNFα Cell Based Assay. The following applies: Homo sapiens, Monocyte, read-out: EC50 TNF. In short, it runs like this:
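TR-FRET read-out of total secreted TNFα, normalized as % control (unstimulated = 0%, LPS-stimulated = 100%). Cells (5,000/well) were exposed to compound 1 h at 37 °C, then to 50 pg/ml LPS for a further 4 h.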

Experiment [2] addresses T1, human Cot catalytic domain (30-397 amino acids) (Homo sapiens, UniProt P41279).
T1 construct: Purified recombinant human Cot catalytic domain (30-397 amino acids) was purchased from Cama Biosciences; purchased Cama Biosciences (so in the source)
Put plainly: High Throughput Cot Biochemical Assay (KinEASE TR-FRET). The settings on record: read-out: IC50 HTRF. An outline of the steps:
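TR-FRET readout: Eu-labeled phospho-specific antibody binds XL665-tagged STK3 peptide after phosphorylation by Cot (aa 30-397, 5 nM). Conditions: 400 μM ATP, 1 μM peptide, MOPS pH 7.0 buffer with MgOAc, DTT, BSA, NP-40, glycerol; 0.1% DMSO.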
(In TR-FRET formats the signal depends on donor and acceptor labels being close together.)

Where [3] appears, read: LPS-stimulated human monocytes, TNFα TR-FRET.
[4] abbreviates: Cot KinEASE TR-FRET, 400 μM ATP.
Setting [5] is: TNFα in LPS-stimulated human monocytes.
The mark [6] stands for this setting: Cot KinEASE TR-FRET (HTRF) biochemical assay, 400 μM ATP.
Setting [7] is: Cot biochemical HTRF (KinEASE TR-FRET) assay.

T1 sequence (P41279 30-397): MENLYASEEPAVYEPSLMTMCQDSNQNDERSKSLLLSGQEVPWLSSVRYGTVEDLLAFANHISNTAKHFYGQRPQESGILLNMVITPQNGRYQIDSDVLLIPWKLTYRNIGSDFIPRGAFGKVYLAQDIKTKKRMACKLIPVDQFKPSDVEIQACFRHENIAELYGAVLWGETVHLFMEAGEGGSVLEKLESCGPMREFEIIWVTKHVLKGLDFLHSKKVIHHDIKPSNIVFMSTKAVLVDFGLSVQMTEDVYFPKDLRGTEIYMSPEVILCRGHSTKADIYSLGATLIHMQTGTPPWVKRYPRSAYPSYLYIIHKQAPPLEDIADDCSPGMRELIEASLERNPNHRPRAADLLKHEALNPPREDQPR

By EC50 is commonly meant the concentration needed to bring the measured effect to its halfway point. The term IC50 denotes the concentration that gives 50% inhibition. Regarding `Cc1c(C#N)cccc1[C@H](Nc1cc(C#N)c2ncc(C#N)c(NCC(C)(C)C)c2c1)c1cn(C2(C(F)(F)F)CC2)nn1` [Example 995, (S)-6-(((3-cyano-2-methylphenyl)(1-(1-(trifluoromethyl)cyclopropyl)-1H-1,2,3-triazol-4-yl)methyl)amino)-4-(neopentylamino)quinoline-3,8-dicarbonitrile], in experiment [1] (setting [3]), the EC50 turned out to be 49 nM. In addition, in experiment [2] (setting [4]), the IC50 came out at 3 nM.
Turning to `CC(C)(C)N1CCC(n2cc([C@@H](Nc3cc(Cl)c4ncc(C#N)c(Nc5ccc(F)c(Cl)c5)c4c3)c3cccc(N)c3)nn2)CC1` [Compound 24], in experiment [1] (setting [5]), the EC50 stood at 120 nM. For the same compound, the IC50 in experiment [2] (setting [6]) is 6 nM.
On to `CC(C)(C)N1CCC(n2cc([C@@H](Nc3cc(Cl)c4ncc(C#N)c(Nc5cccc6[nH]c(=O)[nH]c56)c4c3)c3ccccc3)nn2)CC1` [Example 479, (S)-6-(((1-(1-(tert-butyl)piperidin-4-yl)-1H-1,2,3-triazol-4-yl)(phenyl)methyl)amino)-8-chloro-4-((2-oxo-2,3-dihydro-1H-benzo[d]imidazol-4-yl)amino) quinoline-3-carbonitrile], for which, in experiment [1] (setting [5]), the EC50 was greater than 10000 nM. The IC50 in experiment [2] (setting [7]) was determined as 5280 nM.
The corresponding values for `CC[C@@H](Nc1c(C#N)cnc2c(Cl)cc(N[C@@H](c3ccc(F)cc3)c3cn(C)nn3)cc12)c1ccccc1` [Example 416, 8-chloro-6-(((S)-(4-fluorophenyl)(1-methyl-1H-1,2,3-triazol-4-yl)methyl)amino)-4-(((R)-1-phenylpropyl)amino) quinoline-3-carbonitrile] are 209 nM and 6 nM.
As for `Cc1c(-c2cnco2)cccc1[C@H](Nc1cc(C#N)c2ncc(C#N)c(NCC(C)(C)C)c2c1)c1cn(C2(C(F)(F)F)CC2)nn1` [Example 1131, (S)-6-(((2-methyl-3-(oxazol-5-yl)phenyl)(1-(1-(trifluoromethyl)cyclopropyl)-1H-1,2,3-triazol-4-yl)methyl)amino)-4-(neopentylamino)quinoline-3,8-dicarbonitrile], the EC50 in experiment [1] (setting [3]) worked out at 38 nM. In addition, the IC50 in experiment [2] (setting [4]) worked out at 3 nM.
As to `CN(C)C(=O)c1cccc([C@H](Nc2cc(Cl)c3ncc(C#N)c(Nc4cccc(Cl)c4F)c3c2)c2cn(C3CCN(C(C)(C)C)CC3)nn2)c1` [Example 608, (S)-3-((1-(1-(tert-butyl)piperidin-4-yl)-1H-1,2,3-triazol-4-yl)((8-chloro-4-((3-chloro-2-fluorophenyl)amino)-3-cyanoquinolin-6-yl)amino)methyl)-N,N-dimethylbenzamide], the EC50 in experiment [1] (setting [5]) came to 41 nM. In addition, the IC50 in experiment [2] (setting [7]) came to 1 nM.
In the case of `[2H][C@](Nc1cc(Cl)c2ncc(C#N)c(N[C@@H]3CCC[C@H](O)C3)c2c1)(c1ccc(F)cc1)c1cn(C2CC2)nn1` [Example 314, 8-chloro-6-(((S)-(1-cyclopropyl-1H-1,2,3-triazol-4-yl)(4-fluorophenyl)methyl-d)amino)-4-(((1R,3S)-3-hydroxycyclohexyl)amino) quinoline-3-carbonitrile], the EC50 in experiment [1] (setting [5]) was 6390 nM. Further, the IC50 in experiment [2] (setting [6]) was 1330 nM.
With `[2H][C@](Nc1cc(Cl)c2ncc(C#N)c(NN3CCCCC3)c2c1)(c1ccc(F)cc1)c1cn(C2CC2)nn1` [Example 178, (S)-8-chloro-6-(((1-cyclopropyl-1H-1,2,3-triazol-4-yl)(4-fluorophenyl)methyl-d)amino)-4-(piperidin-1-ylamino) quinoline-3-carbonitrile], in experiment [1] (setting [5]), the EC50 is 674 nM. The IC50 in experiment [2] (setting [6]) is 110 nM.
For the compound `CC(C)(C)N1CCC(n2cc([C@@H](Nc3cc(Cl)c4ncc(C#N)c(N[C@H]5CCCc6ccccc65)c4c3)c3ccccc3)nn2)CC1` [Example 488, 6-(((S)-(1-(1-(tert-butyl)piperidin-4-yl)-1H-1,2,3-triazol-4-yl)(phenyl)methyl)amino)-8-chloro-4-(((S)-1,2,3,4-tetrahydronaphthalen-1-yl)amino)quinoline-3-carbonitrile], in experiment [1] (setting [5]), the EC50 is 9010 nM. Further, the IC50 in experiment [2] (setting [7]) was 1300 nM.
